# Assay results from PubChem BioAssay (NCI).
#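 How tested: cells in 96-well plates exposed to compound for 48 hours at five concentrations. GI50: concentration for 50% inhibition of growth. TGI: total growth inhibition.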
# Legend:
# Experiment in all cases: NCI anticancer screen, dose series, 48 h
# NCI-H226 lung = tested on: NCI-H226 lung
# NCI-H460 lung = tested on: NCI-H460 lung
# SF-539 CNS = tested on: SF-539 CNS
# K-562 leukemia = tested on: K-562 leukemia
# NCI-H23 lung = tested on: NCI-H23 lung
# HL-60(TB) leukemia = tested on: HL-60(TB) leukemia
# M14 melanoma = tested on: M14 melanoma
# HOP-62 NSCLC = tested on: HOP-62 NSCLC
# SN12C renal = tested on: SN12C renal
# NCI-H522 lung = tested on: NCI-H522 lung
# HT29 colon = tested on: HT29 colon
# HOP-18 NSCLC = tested on: HOP-18 NSCLC
# MOLT-4 leukemia = tested on: MOLT-4 leukemia
# SW-620 colon = tested on: SW-620 colon
# UO-31 renal = tested on: UO-31 renal
# A549 NSCLC = tested on: A549 NSCLC
# CAKI-1 renal = tested on: CAKI-1 renal
# HCT-116 colon = tested on: HCT-116 colon
# MALME-3M melanoma = tested on: MALME-3M melanoma
# OVCAR-3 ovarian = tested on: OVCAR-3 ovarian
# XF 498 CNS = tested on: XF 498 CNS
# OVCAR-5 ovarian = tested on: OVCAR-5 ovarian
# DLD-1 colon = tested on: DLD-1 colon
# SK-OV-3 ovarian = tested on: SK-OV-3 ovarian
# DMS 273 small cell lung = tested on: DMS 273 small cell lung
# UACC-257 melanoma = tested on: UACC-257 melanoma
# COLO 205 colon = tested on: COLO 205 colon
# IGROV1 ovarian = tested on: IGROV1 ovarian
# SK-MEL-2 melanoma = tested on: SK-MEL-2 melanoma
# HCT-15 colon = tested on: HCT-15 colon
# HOP-92 NSCLC = tested on: HOP-92 NSCLC
# DMS 114 small cell lung = tested on: DMS 114 small cell lung
# SF-268 CNS = tested on: SF-268 CNS
# SR leukemia = tested on: SR leukemia
# TK-10 renal = tested on: TK-10 renal
# CCRF-CEM leukemia = tested on: CCRF-CEM leukemia
# OVCAR-8 ovarian = tested on: OVCAR-8 ovarian
# SNB-75 CNS = tested on: SNB-75 CNS
# SK-MEL-5 melanoma = tested on: SK-MEL-5 melanoma
# KM20L2 colon = tested on: KM20L2 colon
# SF-295 CNS = tested on: SF-295 CNS
# U251 CNS = tested on: U251 CNS
# UACC-62 melanoma = tested on: UACC-62 melanoma
# M19-MEL melanoma = tested on: M19-MEL melanoma
# LOX IMVI melanoma = tested on: LOX IMVI melanoma
# RXF 393 renal = tested on: RXF 393 renal
# SNB-19 CNS = tested on: SNB-19 CNS
# RXF-631 renal = tested on: RXF-631 renal
# RPMI-8226 leukemia = tested on: RPMI-8226 leukemia
# LXFL 529 NSCLC = tested on: LXFL 529 NSCLC
# 786-0 renal = tested on: 786-0 renal
# OVCAR-4 ovarian = tested on: OVCAR-4 ovarian
# A498 renal = tested on: A498 renal
# KM12 colon = tested on: KM12 colon
# EKVX NSCLC = tested on: EKVX NSCLC
# SK-MEL-28 melanoma = tested on: SK-MEL-28 melanoma
# ACHN renal = tested on: ACHN renal
# HCC-2998 colon = tested on: HCC-2998 colon
# SNB-78 CNS = tested on: SNB-78 CNS
structure (smiles),measurement,setting,value
O=C1C(c2ccccc2)=C(c2ccccc2)C(c2ccc(-c3ccc(C4=C(c5ccccc5)C(=O)C(c5ccccc5)=C4c4ccccc4)cc3)cc2)=C1c1ccccc1,TGI,NCI-H226 lung,> 100000 nM
same,TGI,NCI-H460 lung,> 100000 nM
same,TGI,SF-539 CNS,> 100000 nM
same,TGI,K-562 leukemia,> 100000 nM
same,TGI,NCI-H23 lung,> 100000 nM
same,TGI,HL-60(TB) leukemia,> 100000 nM
same,TGI,M14 melanoma,> 100000 nM
same,TGI,HOP-62 NSCLC,> 100000 nM
same,TGI,SN12C renal,> 100000 nM
same,TGI,NCI-H522 lung,> 100000 nM
same,TGI,HT29 colon,> 100000 nM
same,TGI,HOP-18 NSCLC,> 100000 nM
same,TGI,MOLT-4 leukemia,> 100000 nM
same,TGI,SW-620 colon,> 100000 nM
same,TGI,UO-31 renal,> 100000 nM
same,TGI,A549 NSCLC,> 100000 nM
same,TGI,CAKI-1 renal,> 100000 nM
same,TGI,HCT-116 colon,> 100000 nM
same,TGI,MALME-3M melanoma,> 100000 nM
same,TGI,OVCAR-3 ovarian,> 100000 nM
same,TGI,XF 498 CNS,> 100000 nM
same,TGI,OVCAR-5 ovarian,> 100000 nM
same,TGI,DLD-1 colon,> 100000 nM
same,TGI,SK-OV-3 ovarian,> 100000 nM
same,TGI,DMS 273 small cell lung,> 100000 nM
same,TGI,UACC-257 melanoma,> 100000 nM
same,TGI,COLO 205 colon,> 100000 nM
same,TGI,IGROV1 ovarian,> 100000 nM
same,TGI,SK-MEL-2 melanoma,> 100000 nM
same,TGI,HCT-15 colon,> 100000 nM
same,TGI,HOP-92 NSCLC,> 100000 nM
same,TGI,DMS 114 small cell lung,> 100000 nM
same,TGI,SF-268 CNS,> 100000 nM
same,TGI,SR leukemia,> 100000 nM
same,TGI,TK-10 renal,> 100000 nM
same,TGI,CCRF-CEM leukemia,> 100000 nM
same,TGI,OVCAR-8 ovarian,> 100000 nM
same,TGI,SNB-75 CNS,> 100000 nM
same,TGI,SK-MEL-5 melanoma,> 100000 nM
same,TGI,KM20L2 colon,> 100000 nM
same,TGI,SF-295 CNS,> 100000 nM
same,TGI,U251 CNS,> 100000 nM
same,TGI,UACC-62 melanoma,> 100000 nM
same,TGI,M19-MEL melanoma,> 100000 nM
same,TGI,LOX IMVI melanoma,> 100000 nM
same,TGI,RXF 393 renal,> 100000 nM
same,TGI,SNB-19 CNS,> 100000 nM
same,TGI,RXF-631 renal,> 100000 nM
same,TGI,RPMI-8226 leukemia,> 100000 nM
same,TGI,LXFL 529 NSCLC,> 100000 nM
same,TGI,786-0 renal,> 100000 nM
same,TGI,OVCAR-4 ovarian,> 100000 nM
same,TGI,A498 renal,> 100000 nM
same,TGI,KM12 colon,> 100000 nM
same,TGI,EKVX NSCLC,> 100000 nM
CC[C@@]1(O)C(=O)OCc2c1cc1n(c2=O)Cc2cc3c([N+](=O)[O-])c(OC)ccc3nc2-1,GI50,NCI-H226 lung,274 nM
same,GI50,NCI-H460 lung,< 10 nM
same,TGI,NCI-H460 lung,118 nM
same,GI50,SF-539 CNS,< 12.2 nM
same,TGI,SF-539 CNS,121 nM
same,GI50,K-562 leukemia,168 nM
same,TGI,K-562 leukemia,> 20400 nM
same,GI50,NCI-H23 lung,15.5 nM
same,TGI,NCI-H23 lung,175 nM
same,GI50,SK-MEL-28 melanoma,544 nM
same,TGI,SK-MEL-28 melanoma,8160 nM
same,GI50,HL-60(TB) leukemia,23.6 nM
same,TGI,HL-60(TB) leukemia,196 nM
same,GI50,M14 melanoma,44.5 nM
same,TGI,M14 melanoma,635 nM
same,GI50,HOP-62 NSCLC,< 10 nM
same,GI50,SN12C renal,< 10 nM
same,TGI,SN12C renal,433 nM
same,GI50,NCI-H522 lung,71.4 nM
same,TGI,NCI-H522 lung,2160 nM
same,GI50,HT29 colon,224 nM
same,TGI,HT29 colon,> 100000 nM
same,GI50,ACHN renal,< 10 nM
same,TGI,ACHN renal,64.8 nM
same,GI50,HOP-18 NSCLC,81.6 nM
same,TGI,HOP-18 NSCLC,1980 nM
same,GI50,MOLT-4 leukemia,< 10 nM
same,TGI,MOLT-4 leukemia,83.5 nM
same,GI50,SW-620 colon,171 nM
same,TGI,SW-620 colon,2550 nM
same,GI50,UO-31 renal,84.5 nM
same,TGI,UO-31 renal,595 nM
same,GI50,A549 NSCLC,34.3 nM
same,TGI,A549 NSCLC,2610 nM
same,GI50,CAKI-1 renal,17.2 nM
same,TGI,CAKI-1 renal,582 nM
same,GI50,HCT-116 colon,121 nM
same,TGI,HCT-116 colon,1500 nM
same,GI50,MALME-3M melanoma,374 nM
same,TGI,MALME-3M melanoma,3090 nM
same,GI50,OVCAR-3 ovarian,424 nM
same,TGI,OVCAR-3 ovarian,1340 nM
same,GI50,XF 498 CNS,508 nM
same,TGI,XF 498 CNS,5070 nM
same,GI50,OVCAR-5 ovarian,64.9 nM
same,TGI,OVCAR-5 ovarian,629 nM
same,GI50,DLD-1 colon,1540 nM
same,TGI,DLD-1 colon,> 100000 nM
same,GI50,SK-OV-3 ovarian,48.1 nM
same,TGI,SK-OV-3 ovarian,2490 nM
same,GI50,DMS 273 small cell lung,< 10 nM
same,TGI,DMS 273 small cell lung,377 nM
same,GI50,UACC-257 melanoma,293 nM
same,TGI,UACC-257 melanoma,2230 nM
same,GI50,COLO 205 colon,529 nM
same,TGI,COLO 205 colon,2640 nM
same,GI50,IGROV1 ovarian,272 nM
same,TGI,IGROV1 ovarian,2320 nM
same,GI50,HCC-2998 colon,359 nM
same,TGI,HCC-2998 colon,2140 nM
same,GI50,SK-MEL-2 melanoma,968 nM
same,TGI,SK-MEL-2 melanoma,2610 nM
same,GI50,HCT-15 colon,386 nM
same,TGI,HCT-15 colon,3710 nM
same,GI50,HOP-92 NSCLC,375 nM
same,TGI,HOP-92 NSCLC,2940 nM
same,GI50,SF-268 CNS,17.7 nM
same,TGI,SF-268 CNS,> 31800 nM
same,GI50,SR leukemia,< 10 nM
same,GI50,TK-10 renal,3580 nM
same,TGI,TK-10 renal,55600 nM
same,GI50,CCRF-CEM leukemia,< 10 nM
same,TGI,CCRF-CEM leukemia,34.9 nM
same,GI50,OVCAR-8 ovarian,103 nM
same,TGI,OVCAR-8 ovarian,19000 nM
same,GI50,SNB-75 CNS,35 nM
same,TGI,SNB-75 CNS,405 nM
same,GI50,SK-MEL-5 melanoma,119 nM
same,TGI,SK-MEL-5 melanoma,285 nM
same,GI50,KM20L2 colon,262 nM
same,TGI,KM20L2 colon,5950 nM
same,GI50,SF-295 CNS,10.1 nM
same,TGI,SF-295 CNS,263 nM
same,GI50,U251 CNS,< 10 nM
same,TGI,U251 CNS,230 nM
same,GI50,UACC-62 melanoma,< 10 nM
same,TGI,UACC-62 melanoma,134 nM
same,GI50,SNB-78 CNS,2200 nM
same,TGI,SNB-78 CNS,> 65300 nM
same,TGI,M19-MEL melanoma,1600 nM
same,GI50,LOX IMVI melanoma,19.4 nM
same,TGI,LOX IMVI melanoma,183 nM
same,GI50,RXF 393 renal,120 nM
same,TGI,RXF 393 renal,831 nM
same,GI50,SNB-19 CNS,59.4 nM
same,TGI,SNB-19 CNS,22200 nM
same,GI50,RXF-631 renal,311 nM
same,TGI,RXF-631 renal,4580 nM
same,GI50,RPMI-8226 leukemia,1380 nM
same,TGI,RPMI-8226 leukemia,14500 nM
same,GI50,LXFL 529 NSCLC,1430 nM
same,TGI,LXFL 529 NSCLC,8420 nM
same,GI50,786-0 renal,< 11.5 nM
same,TGI,786-0 renal,67.2 nM
same,GI50,OVCAR-4 ovarian,574 nM
same,TGI,OVCAR-4 ovarian,3020 nM
same,GI50,A498 renal,184 nM
same,TGI,A498 renal,855 nM
same,GI50,KM12 colon,514 nM
same,TGI,KM12 colon,6120 nM
same,GI50,EKVX NSCLC,3030 nM
same,TGI,EKVX NSCLC,> 77500 nM
